PMC4014323, “Structure of tyrosine aminotransferase from Leishmania infantum” (Acta Crystallographica. Section F, Structural Biology …, 2014)

What was measured:
LiTAT_truncated [1] = biological target: T1, LiTAT_truncated (Leishmania infantum, UniProt A4IDL0); experiment: X-ray crystallography, […] A; assay type: binding; conditions: covalent, internal aldimine at Lys286; crystals at pH 8.5
T1 construct: gene TAT; E. coli BL21(DE3) pLysS; homodimer; model Ser40-Lys448
T1 sequence (A4IDL0 39-448): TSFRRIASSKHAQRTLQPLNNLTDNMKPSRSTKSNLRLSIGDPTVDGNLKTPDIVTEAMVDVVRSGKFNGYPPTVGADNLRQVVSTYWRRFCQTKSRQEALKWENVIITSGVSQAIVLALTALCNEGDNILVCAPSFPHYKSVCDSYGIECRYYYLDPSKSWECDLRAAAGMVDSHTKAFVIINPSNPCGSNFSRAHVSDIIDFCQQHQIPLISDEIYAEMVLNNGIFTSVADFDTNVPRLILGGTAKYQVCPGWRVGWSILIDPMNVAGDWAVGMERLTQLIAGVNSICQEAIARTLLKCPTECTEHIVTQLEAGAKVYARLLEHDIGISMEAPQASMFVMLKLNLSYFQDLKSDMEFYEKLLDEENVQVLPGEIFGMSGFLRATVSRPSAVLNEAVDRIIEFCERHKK

LiTAT_truncated [2] = biological target: T1, LiTAT_truncated; experiment: Diamondstone p-hydroxybenzaldehyde assay; assay type: biochemical
[3] = biological target: the molecule itself; experiment: SEC; HiLoad 26/60 Superdex 75 prep grade, room temperature, 20 mM HEPES pH 7.0, 300 mM NaCl, 5% glycerol, 1 mM TCEP; molecular weight estimated from a calibration curve (Low Molecular Weight Kit)

Molecule: Cc1ncc(COP(=O)(O)O)c(C=O)c1O [PLP]
- X-ray crystallography, 2.35 A (LiTAT_truncated [1]): In both subunits of LiTAT, PLP is covalently bound to Lys286

Molecule: CC(=O)C(=O)O [pyruvate]
- Diamondstone p-hydroxybenzaldehyde assay (LiTAT_truncated [2]; amino acceptor, co-substrate tyrosine): it can transaminate pyruvate with high efficiency

Molecule: N[C@@H](Cc1ccc(O)cc1)C(=O)O [tyrosine]
- Diamondstone p-hydroxybenzaldehyde assay (LiTAT_truncated [2]; amino donor, co-substrate pyruvate): using tyrosine as the amino donor

B1: Leishmania infantum tyrosine aminotransferase, truncated (lacking the first 114 nucleotides of the annotated sequence) (domain or fragment, UniProt A4IDL0 39-448, looked up)
chain: T1 sequence (A4IDL0 39-448)
modifications: PLP covalently bound to Lys286
notes: residues Ser40-Lys448 built in chain A of the crystal structure; they are worked out from the deletion of the first 114 nucleotides of a protein of 448 amino acids; source: E. coli BL21 (DE3) pLysS, purified (HisTrap FF, Superdex 75 SEC); not shown: His tag (from the vector pRSET-A)
- stoichiometry N [3]: 2

B2: Leishmania infantum tyrosine aminotransferase, full length (enzyme, UniProt A4IDL0 1-448, looked up)
chain: MTIDTQAAPAAQTLKAGNSTGSLTEERREVEQQRAAENTSFRRIASSKHAQRTLQPLNNLTDNMKPSRSTKSNLRLSIGDPTVDGNLKTPDIVTEAMVDVVRSGKFNGYPPTVGADNLRQVVSTYWRRFCQTKSRQEALKWENVIITSGVSQAIVLALTALCNEGDNILVCAPSFPHYKSVCDSYGIECRYYYLDPSKSWECDLRAAAGMVDSHTKAFVIINPSNPCGSNFSRAHVSDIIDFCQQHQIPLISDEIYAEMVLNNGIFTSVADFDTNVPRLILGGTAKYQVCPGWRVGWSILIDPMNVAGDWAVGMERLTQLIAGVNSICQEAIARTLLKCPTECTEHIVTQLEAGAKVYARLLEHDIGISMEAPQASMFVMLKLNLSYFQDLKSDMEFYEKLLDEENVQVLPGEIFGMSGFLRATVSRPSAVLNEAVDRIIEFCERHKK
notes: Tyrosine aminotransferase of Leishmania infantum (MHOM/ES/98/10445), full-length gene LinJ.36.2490 encoding 448 amino acids; Cloned BamHI/HindIII into pRSET-A; PLP (4 uM) was in the lysis and IMAC buffers; also called LiTAT; TAT; source: E. coli BL21 (DE3) pLysS, purified (HisTrap FF, Superdex 75 SEC); not shown: His tag (from the vector pRSET-A)
- stoichiometry N [3]: 2
